Laboratory results as given in patent US20260193180A1, “AUTOPHAGY INDUCING COMPOUNDS AND USES THEREOF” (SAMSARA THERAPEUTICS INC., priority 2022, published 2026).
Where a name gives a salt, the structure may show the parent alone. Read-outs that look alike come from different tables or passages of the source.

System: U2OS cell line stabling expressing RFP-eGFP-hLC3b
Assay: Tandem reporter assay (autophagic flux), RFP-only puncta (autolysosomes)
Type: cell-based
Conditions: Homo sapiens, read-out: Activity (Autolysosome % DMSO activity)
Experimental: Selected compounds of this invention were also assessed for their ability to stimulate autophagy using a U2OS cell line stabling expressing RFP-eGFP-hLC3b (a tandem reporter cell line). This assay is further described in WO 2023/089074.
LC3b is a protein found in the membrane of autophagosomes which has been used to generate genetic reporters of autophagy in cells. In these systems a tandem fusion of LC3b is engineered with two fluorescent proteins of different wavelengths: one which is acid sensitive (for example eGFP, which fluoresces green) and the other which is acid insensitive (for example RFP, which fluoresces red). Cells expressing RFP-eGFP-hLC3b can be examined using fluorescent microscopy: the autophagosomes present will fluoresce in both channels (either yellow in an overlay of both channels or puncta that are present in both the individual red and green channels) but the autolysosomes present will fluoresce in the RFP (red) channel only. Using a fluorescent microscope, the number of autophagosomes and autolysosomes can be counted, allowing for the monitoring of both the induction of autophagy (total puncta count) and the rate of autophagic flux (ratio of red-only to red-and-green puncta). The influence of small molecules on autophagy induction and flux can be assessed using this system by comparison to a non-treated control.
Representative Procedure: Human osteosarcoma U20S cells stably expressing RFP-eGFP-hLC3b were seeded (10,000 cells/well) into a 96-well glass-bottom plate (Cell Carrier Ultra, Perkin Elmer) in DMEM Glutamax media (Gibco) supplemented with 10% Fetal Bovine Serum (FBS) and antibiotics (100 μg/ml penicillin, 100 μg/ml streptomycin, Invitrogen), then incubated overnight in a humified atmosphere at 37° C. and 5% CO2. The cells were then treated with the compounds of interest, dissolved in DMSO, in a duplicated 5- or 10-point dose-response. 8 wells were treated with an equivalent volume of DMSO, 4 with 0.3 μM torin-1 as a positive control (MCE) and 4 wells with 0.4 μM torin-1 plus 0.2 μM bafilomycin (MCE) as a control for flux inhibition. The cells were returned to the incubator and the treatment continued for 24 hours. After treatment, the media was aspirated off and the cells fixed with a solution of 4% formaldehyde+1% glutaraldehyde (Sigma) in dPBS (plus magnesium and calcium, Gibco). Fixation was allowed to proceed for 15 minutes at room temperature then the fixative solution discarded and replaced with PBS (Gibco) plus Hoescht 33342 (1 μg/ml, Sigma). After 30 minutes the plates were imaged on an Opera Phenix confocal microscope (Perkin-Elmer) using a 40× water objective, collecting using DAPI, mCherry and GFP channels. Cells were detected based upon the staining of their nuclei with DAPI using the Harmony image analysis software (Perkin-Elmer) and the number of autophagosomes (GFP and RFP puncta) and autolysosomes (RFP only puncta) per cell were counted using the spot picking function within the software.

Compound | activity at 1.25 µM (average of two runs) [%] | other results
CCOc1c(Cl)cc(CN2CC[C@@H](CN)C2)cc1Cl [Compound 70, (S)-(1-(3,5-dichloro-4-ethoxybenzyl)pyrrolidin-3-yl)methanamine hydrochloride] |  | activity at 0.75 µM (0.75 μM, one run): 150 to 200%
CCOc1ccc(CCN2CCC(N)CC2)cc1Cl [Compound 71, 1-(3-chloro-4-ethoxyphenethyl)piperidin-4-amine hydrochloride] |  | activity at 0.833 µM (0.833 μM, average of two runs): 150 to 200%
COCCOc1c(Cl)cc(CCN2CCC[C@H](N)C2)cc1Cl [Compound 72, (S)-1-(3,5-dichloro-4-(2-methoxyethoxy)phenethyl)piperidin-3-amine hydrochloride] |  | activity at 0.5 µM (average of two runs): 150 to 200%
N[C@@H]1CCN(Cc2cc(Cl)c(OCC3CC3)c(Cl)c2)C1 [Compound 73, (R)-1-(3,5-dichloro-4-(cyclopropylmethoxy)benzyl)pyrrolidin-3-amine hydrochloride] | 250 to 300 | 
N[C@H]1CCCN(CCc2cc(Cl)c(OCC3CC3)c(Cl)c2)C1 [Compound 74, (S)-1-(3,5-dichloro-4-(cyclopropylmethoxy)phenethyl)piperidin-3-amine hydrochloride] | > 300 | 
CCOc1ccc(CN2CCC(N)CC2)cc1Cl [Compound 75, 1-(3-chloro-4-ethoxybenzyl)piperidin-4-amine hydrochloride] | 200 to 250 | 
COCCOc1c(Cl)cc(CCN2CCC[C@@H](N)C2)cc1Cl [Compound 76, (R)-1-(3,5-dichloro-4-(2-methoxyethoxy)phenethyl)piperidin-3-amine hydrochloride] |  | activity at 0.5 µM (average of two runs): 150 to 200%
N[C@H]1CCN(Cc2cc(Cl)c(OCC3CC3)c(Cl)c2)C1 [Compound 77, (S)-1-(3,5-dichloro-4-(cyclopropylmethoxy)benzyl)pyrrolidin-3-amine hydrochloride] | 250 to 300 | 
N[C@@H]1CCCN(CCc2cc(Cl)c(OCC3CC3)c(Cl)c2)C1 [Compound 78, (R)-1-(3,5-dichloro-4-(cyclopropylmethoxy)phenethyl)piperidin-3-amine hydrochloride] | 200 to 250 | 
N[C@H]1CCCN(CCc2ccc(OCC3CC3)c(Cl)c2)C1 [Compound 79, (S)-1-(3-chloro-4-(cyclopropylmethoxy)phenethyl)piperidin-3-amine formate salt] | 250 to 300 | 
N[C@@H]1CCCN(CCc2ccc(OCC3CC3)c(Cl)c2)C1 [Compound 80, (R)-1-(3-chloro-4-(cyclopropylmethoxy)phenethyl)piperidin-3-amine formate salt] | 250 to 300 | 
NC1CCN(Cc2ccc(OCC3CC3)c(Cl)c2)CC1 [Compound 81, 1-(3-chloro-4-(cyclopropylmethoxy)benzyl)piperidin-4-amine hydrochloride] | 150 to 200 | 
CCOc1c(Cl)cc(CN2CC[C@H](CN)C2)cc1C#N [Compound 82, (R)-5-((3-(aminomethyl)pyrrolidin-1-yl)methyl)-3-chloro-2-ethoxybenzonitrile hydrochloride] |  | activity at 1.25 µM (one run): 150 to 200%
CCOc1ccc(C#N)cc1CCN1CCC[C@H](N)C1 [Compound 83, (S)-3-(2-(3-aminopiperidin-1-yl)ethyl)-4-ethoxybenzonitrile hydrochloride] | 200 to 250 | 
CCOc1ccc(C#N)cc1CCN1CCC[C@@H](N)C1 [Compound 84, (R)-3-(2-(3-aminopiperidin-1-yl)ethyl)-4-ethoxy benzonitrile hydrochloride] | 200 to 250 | 
CCOc1ccc(CCN2CC[C@H](N)C2)cc1C#N [Compound 85, (S)-5-(2-(3-aminopyrrolidin-1-yl)ethyl)-2-ethoxybenzonitrile hydrochloride] |  | activity at 1.25 µM (one run): 150 to 200%
CCOc1ccc(C#N)cc1CCN1CC[C@H](N)C1 [Compound 86, (S)-3-(2-(3-aminopyrrolidin-1-yl)ethyl)-4-ethoxy benzonitrile hydrochloride] | 150 to 200 | 
CCOc1ccc(C#N)cc1CCN1CC[C@@H](N)C1 [Compound 87, 3-{2-[(R)-3-amino-1-pyrrolidinyl]ethyl}-4-ethoxybenzonitrile hydrochloride] | 150 to 200 | 
